Key:
MeV F (S262R) = MeV F (S262R) (Measles virus, UniProt Q786F3, S262R); type: cell-based; conditions: 1 μM, 60 min 37 °C, then 10 mM zanamivir; triplicate experiments
MeV F = MeV F (Measles virus, UniProt Q786F3); type: cell-based; conditions: with or without 3g, coincubation or sequential incubation; Figure S17

SMILES: N#Cc1cccc(NC(=O)Cc2ccccc2)c1 [3g, N-(3-Cyanophenyl)-2-phenylacetamide]
- step of entry at which the compound acts (RBCs released, retained or fused) (MeV F (S262R)): reversibly bound RBC
- colocalization of [FIP–HRC]2–PEG11 with F (MeV F): colocalization is disrupted
